Like-named read-outs stand apart in the source and are kept apart here.

These results are taken from article PMC9229949 (Pharmaceutics, 2022).

Data set [1] deals with β-hematin formation from Fe(III)PPIX (hematin). Briefly: β-hematin inhibition activity, oxidizing conditions (O-BHIA, hematin). Conditions: 18 h incubation; median ± S.E.M. of three experiments; free bases; read-out: β-Hematin Inhibitory Activity (BHIA) O-BHIA (Hematin), IC50. It counts as biochemical. Here is the method:
(§1) A hemin chloride (10 μL of 4 mM stock in 80% DMSO) aliquot was dispensed in a U bottom 96-well microplate, and then, 10 μL of 0.1 M NaOH (O-BHIA) or 4 mM reduced glutathione in PBS at pH 7.0 (R-BHIA) was added, and plates were sealed and incubated at 37 °C for 2 h. After this, 10 μL of the drug dissolved in DMSO was added and incubated for 2 h, followed by the addition of 180 μL of sodium acetate buffer (1.0 M, pH 5.2) and 10 μL of nonionic detergent IGEPAL-CA-630 solution in methanol (10 mg/mL). Plates were sealed and incubated at 37 °C for 18 h. […] The reaction was stopped by the addition of 50 μL of a sodium dodecyl sulfate solution (5.0% v/v in 0.1 M bicarbonate buffer at pH 9.0). Plates were centrifuged at 3700 rpm for 5 min, and 100 μL of supernatant was placed in a separate plate. […] Two independent experiments were performed, and each drug concentration was tested in quadruplicate concentrations.

The subject of data set [2] is β-hematin formation from Fe(II)PPIX (heme). The data set can be described thus: β-hematin inhibition activity, reducing conditions (R-BHIA, heme). In kind it is biochemical. The following applies: 18 h incubation; median ± S.E.M. of three experiments; free bases; read-out: β-Hematin Inhibitory Activity (BHIA) R-BHIA (Heme), IC50. The protocol:
as §1

Data set [3] concerns P. falciparum 3D7 (CQ-susceptible) asexual blood stages. Briefly: In vitro activity against asexual blood stages of P. falciparum, CQ-susceptible strain 3D7 (HRP2 ELISA). It counts as cell-based. Conditions: Plasmodium falciparum, read-out: P. falciparum, IC50 ± S.E.M., CQ-Susceptible 3D7. Here is the method:
(§2) The plates were incubated for 72 h at 37 °C in controlled atmosphere. After frozen and thawing the plates, hemolyzed cultures were homogenized by vortexing the plates. The antiparasitic activity was determined using the HRP2 ELISA-based assay Malaria Ag Celisa kit (ref KM2159, Cellabs PTY LDT, Brookvale, Australia). […] IC50s are expressed as means of three to five experiments.
(An ELISA detects its analyte on a solid surface through an enzyme-linked reagent.)

The test system of data set [4] is P. falciparum W2 (CQ-resistant) asexual blood stages. The data set can be described thus: In vitro activity against asexual blood stages of P. falciparum, CQ-resistant strain W2 (HRP2 ELISA). In kind it is cell-based. The following applies: Plasmodium falciparum, read-out: P. falciparum, IC50 ± S.E.M., CQ-Resistant W2. The protocol: as §2
The test system of data set [5] is β-hematin formation. Briefly: β-hematin formation inhibition by infrared spectroscopy. It counts as biochemical. The following applies: 3:1 ratio of drug:hematin, qualitative by infrared. Also noted: key: Yes indicates β-hematin inhibition; No indicates β-hematin formation. Here is the method: The conversion of hemin to β-hematin was determined by infrared (IR) spectroscopy as described by Egan et al.. […] Then, 0.3 mL of 0.1 M HCl and 1.7 mL of sodium acetate buffer ([…], pH 5) were added at the same temperature. […] The solid was dried and IR spectra were obtained using attenuated total reflection (ATR) using chloroquine as a positive control.

The nature of data set [6]: Interaction with reduced glutathione (GSH) by monochlorobimane fluorescence assay. The following applies: 2 h incubation, 10 to 0.3 drug:GSH molar ratio. The protocol: Ten microliters per well of a solution of 2.0 mM reduced glutathione (Sigma-Aldrich, St. Louis, MO, USA, dissolved in PBS pH 7.2) was distributed in a 96-well microplate containing 170 μL/well of DMSO/PBS (1:1; v/v). Stock solutions of compounds were diluted in DMSO, and 10 μL was added in quadruplicate in the respective wells to a final concentration of 0.015 to 0.5 mM. […] After 1 h incubation at room temperature, fluorescence was recorded (λex = 360 nm, λem = 440 nm). Blank subtraction was performed prior to monochlorobimane addition, and controls included untreated wells (no drug) and no GSH. The results were expressed as a percentage of inhibition of GSH binding to monochlorobimane in comparison to control without compound. At least two independent experiments were performed.

The test system of data set [7] is 3D7 P. falciparum gametocytes stages I/III. The data set can be described thus: P. falciparum young gametocytes (stages I/III), luciferase viability. It counts as cell-based. Conditions: Plasmodium falciparum, read-out: IC50, gametocytes of P. falciparum, Stages I/III. Here is the method:
(§3) The activity of compounds was assessed against young gametocytes (stages I/III) and against mature gametocytes (stage V). […] A volume of 100 μL of 3D7elo1-pfs16-CBG99 gametocytes of 3D7 P. falciparum at 0.5–1% parasitemia and 2% hematocrit were dispensed. […] Luciferase activity was used to determine gametocytes viability. A volume of 100 µL of culture medium was removed from each well to increase hematocrit; 70 µL of resuspended culture was transferred to a black 96-well plate; 70 µL of D-luciferin (1 mM in citrate buffer 0.1 M, pH 5.5) was added. Luminescence measurements were performed after 10 min with 500 ms integration time. The IC50 was extrapolated from nonlinear regression analysis of the concentration–response curve.

The test system of data set [8] is P. berghei sporozoites in Huh-7 cells. Briefly: P. berghei hepatic stages: infection of Huh-7 cells by luciferase-expressing sporozoites. It counts as cell-based. The following applies: Plasmodium berghei, Huh-7, 48 h, read-out: Sporozoites (Inhibition of Infection, %). The protocol:
Huh-7 cells at 1.0 × 10^4 per well were seeded in 96-well plates the day before drug treatment and infection. The culture medium was replaced by infection medium (culture medium supplemented with gentamicin (50 μg/mL) and amphotericin B (0.8 μg/mL)) containing the appropriate concentration of each compound for approximately 1 h prior to infection with sporozoites of firefly luciferase-expressing P. berghei, freshly obtained through the disruption of salivary glands of infected female Anopheles stephensi mosquitoes. An amount of the DMSO solvent equivalent to that present in the highest compound concentration was used as negative control. Sporozoite addition was followed by centrifugation at 1800× g for 5 min. and parasite infection load was measured 48 h after infection by using a bioluminescence assay (Biotium, Hayward, CA, USA). The effect of the compounds on the viability of Huh-7 cells was assessed by performing the AlamarBlue (Invitrogen, Waltham, MA, USA) assay according to the manufacturer’s protocol.

In data set [9] the test system is 3D7 P. falciparum gametocytes stage V. Briefly: P. falciparum mature gametocytes (stage V), luciferase viability. In kind it is cell-based. The following applies: Plasmodium falciparum, 3D7, 72 h, read-out: IC50, gametocytes of P. falciparum, Stage V. The protocol: as §3
Data set [10] is described as follows: Cytotoxicity against J774 cells (CellTiter-Glo). It counts as cell-based, murine. The following applies: mouse, J774 macrophage cells; reference drug, J774; read-out: CC50 for J774. Here is the method:
(§4) In vitro cytotoxicity was assayed against two mammalian cell lineages, J774 (murine macrophages) and HepG2 (human hepatocellular carcinoma). […] Cell cultures from 60 to 80% confluence were trypsinized, washed in complete medium, and 4 × 10^4 cells were plated in 100 µL per well with complete medium in 96-well flat-bottom white plates for 24 h at 37 °C prior to the addition of the compounds. Triplicate aliquots of compound and the reference drugs (stock solution in DMSO) covering 7 different concentrations at 2-fold dilutions were added to the wells, and plates were incubated for 72 h more. After incubation for 72 h at 37 °C, plates were maintained at room temperature, the culture medium was removed, and 100 µL volume of CellTiter-Glo reagent was added to each well. The bioluminescence was measured using a microplate reader Filtermax F5 Multi-Mode instrument (Molecular Devices) and Softmax software. […] The selectivity index (S.I.) was estimated using the IC50s from mammalian cells divided by the IC50 obtained against the asexual blood stage P. falciparum.
In general terms: In ATP-based viability assays light output follows the ATP content of the culture.

The nature of data set [11]: Cytotoxicity against uninfected HepG2 cells (CellTiter-Glo). In kind it is cell-based. Conditions: human, reference drug. Here is the method: as §4

Regarding `C[C@@H]1CC[C@H]2[C@@H](C)C(=O)O[C@@H]3O[C@@]4(C)CC[C@@H]1[C@]32OO4` [Artemisinin (ARS), artemisinin], the IC50 in data set [1] was above 1000 µM; in [2], 60 ± 10 µM.
Regarding `CCN(CC)CCCC(C)Nc1ccnc2cc(Cl)ccc12` (centres unmarked) [Chloroquine (CQ), chloroquine], the IC50 in data set [3] (3D7, 72 h) was 0.018 ± 0.002 µM; in data set [4] (W2, 72 h), 0.459 ± 0.021 µM; in [1] it was 230 ± 40 µM; in [2], 130 ± 30 µM. Besides, in [5], the “β-Hematin Inhibitory Activity (BHIA) Determined by IR” value was “Yes”. In data set [6], the “interaction with GSH” value is listed as “neither CQ nor phenanthroline interacted with GSH”.
Take `C[C@H]1[C@@H](O)O[C@@H]2O[C@@]3(C)CC[C@H]4[C@H](C)CC[C@@H]1[C@@]24OO3` [DHA, dihydroartemisinin]: the IC50 in [7] (3D7 strain, 72 h, mean ± S.D. of one experiment) was determined as 0.0123 ± 0.0054 µM.
Take `COc1cc(NC(C)CCCN)c2ncccc2c1` (centres unmarked) [Primaquine (PQ), primaquine]: the IC50 is 1.12 ± 0.053 µM in [3] (3D7, 72 h incubation, HRP2 ELISA, mean ± S.E.M. of at least three experiments, AQ hydrochloride hydrate, PQ diphosphate, CQ diphosphate); 0.182 ± 0.016 µM in data set [4] (W2, 72 h incubation, HRP2 ELISA, mean ± S.E.M. of at least three experiments, AQ hydrochloride hydrate, PQ diphosphate, CQ diphosphate); 13.7 ± 7.6 µM in data set [7] (3D7, 72 h); 43.2 ± 10.6 µM in data set [9]; above 1000 µM in [1]; above 1000 µM in data set [2]. Further, the inhibition at 10 µM in [8] came out at 52%. For the same compound, the “β-Hematin Inhibitory Activity (BHIA) Determined by IR” value in [5] is on record as “No”.
In the case of `COc1cccc2c1C(=O)c1c(O)c3c(c(O)c1C2=O)C[C@@](O)(C(=O)CO)C[C@@H]3O[C@H]1C[C@H](N)[C@H](O)[C@H](C)O1` [doxorubicin], the values for the CC50 at 72 h in data set [10] and in data set [11] were 0.44 ± 0.31 µM and below 0.12 µM, respectively.
In the case of `c1cnc2c(c1)ccc1cccnc12` [phenanthroline], the “interaction with GSH” value in [6] is given as “neither CQ nor phenanthroline interacted with GSH”.

One may read the inhibition as the relative decrease from the control value, in per cent. The term CC50 denotes the concentration that lowers cell viability or growth by half.
